Assay results reported in patent publication US7388111B2, “Non-nucleoside reverse transcriptase inhibitors” (Roche Palo Alto LLC, priority 2005, dated 2008).

molecular target: HIV-1 RT (Human immunodeficiency virus type 1 group M subtype B, UniProt P03366); experiment: HIV Reverse Transcriptase Assay: Inhibitor IC50 Determination; type: biochemical; conditions: purified recombinant enzyme, poly(rA)/oligo(dT)16 template-primer, 37° C. 30 min
Method: HIV Reverse Transcriptase Assay: Inhibitor IC50 Determination
HIV-1 RT assay was carried out in 96-well Millipore MultiScreen MADVNOB50 plates using purified recombinant enzyme and a poly(rA)/oligo(dT)16 template-primer in a total volume of 50 μL. The assay constituents were 50 mM Tris/HCl, 50 mM NaCl, 1 mM EDTA, 6 mM MgCl2, 5 μM dTTP, 0.15 μCi [^3H] dTTP, 5 μg/ml poly (rA) pre annealed to 2.5 μg/ml oligo (dT)16 and a range of inhibitor concentrations in a final concentration of 10% DMSO. Reactions were initiated by adding 4 nM HIV-1 RT and after incubation at 37° C. for 30 min, they were stopped by the addition of 50 μl ice cold 20% TCA and allowed to precipitate at 4° C. for 30 min. The precipitates were collected by applying vacuum to the plate and sequentially washing with 3×200 μl of 10% TCA and 2×200 μl 70% ethanol. Finally, the plates were dried and radioactivity counted in a Packard TopCounter after the addition of 25 μl scintillation fluid per well. IC50's were calculated by plotting % inhibition versus log10 inhibitor concentrations.

SMILES	IC50 [µM]
Cc1cc(OCCCS(N)(=O)=O)ccc1NC(=O)Cc1ccc(Oc2cc(Cl)ccc2Br)c(Cl)c1 [Compound I-5, 2-[4-(2-Bromo-5-chloro-phenoxy)-3-chloro-phenyl]-N-[2-methyl-4-(3-sulfamoyl-propoxy)-phenyl]-acetamide]	0.148
O=C(Cc1ccc(Oc2cc(Cl)ccc2Br)c(Cl)c1)Nc1ccccc1Cl [Compound I-6, 2-[4-(2-Bromo-5-chloro-phenoxy)-3-chloro-phenyl]-N-(2-chloro-phenyl)-acetamide]	0.17
Cc1ccccc1NC(=O)Cc1ccc(Oc2cc(Cl)ccc2Br)c(Cl)c1 [Compound I-7, 2-[4-(2-Bromo-5-chloro-phenoxy)-3-chloro-phenyl]-N-o-tolyl-acetamide]	0.832
O=C(Cc1ccc(Oc2cc(Cl)ccc2Br)c(Cl)c1)Nc1ccccc1F [Compound I-8, 2-[4-(2-Bromo-5-chloro-phenoxy)-3-chloro-phenyl]-N-(2-fluoro-phenyl)-acetamide]	5.81
Cc1c(CC(=O)Nc2ccc(S(N)(=O)=O)cc2Cl)ccc(Oc2cc(Cl)cc(C#N)c2)c1C [Compound I-18, 2-[4-(3-Chloro-5-cyano-phenoxy)-2,3-dimethyl-phenyl]-N-(2-chloro-4-sulfamoyl-phenyl)-acetamide]	0.111
N#Cc1cc(C#N)cc(Oc2ccc(CC(=O)Nc3ccccc3Br)cc2Cl)c1 [Compound I-20, N-(2-Bromo-phenyl)-2-[3-chloro-4-(3,5-dicyano-phenoxy)-phenyl]-acetamide]	2.38
N#Cc1cc(C#N)cc(Oc2ccc(CC(=O)Nc3ccc(S(N)(=O)=O)cc3Br)cc2Cl)c1 [Compound I-21, N-(2-Bromo-4-sulfamoyl-phenyl)-2-[3-chloro-4-(3,5-dicyano-phenoxy)-phenyl]-acetamide]	0.159
Cc1cc(S(N)(=O)=O)ccc1NC(=O)Cc1ccc(Oc2ccc(C#N)cc2C)c(C)c1C [Compound I-23, 2-[4-(4-Cyano-2-methyl-phenoxy)-2,3-dimethyl-phenyl]-N-(2-methyl-4-sulfamoyl-phenyl)-acetamide]	0.252
Cc1cc(C#N)ccc1Oc1ccc(CC(=O)Nc2ccc(S(N)(=O)=O)cc2Cl)c(C)c1C [Compound I-25, N-(2-Chloro-4-sulfamoyl-phenyl)-2-[4-(4-cyano-2-methyl-phenoxy)-2,3-dimethyl-phenyl]-acetamide]	0.157
Cc1c(CC(=O)Nc2ccc(S(N)(=O)=O)cc2Br)ccc(Oc2cc(Cl)cc(C#N)c2)c1C [Compound I-33, N-(2-Bromo-4-sulfamoyl-phenyl)-2-[4-(3-chloro-5-cyano-phenoxy)-2,3-dimethyl-phenyl]-acetamide]	0.0843
Cc1cc(S(N)(=O)=O)ccc1NC(=O)Cc1ccc(Oc2cc(C#N)ccc2Cl)c(Cl)c1 [Compound I-35, 2-[3-Chloro-4-(2-chloro-5-cyano-phenoxy)-phenyl]-N-(2-methyl-4-sulfamoyl-phenyl)-acetamide]	0.395
N#Cc1ccc(Cl)c(Oc2ccc(CC(=O)Nc3ccc(S(N)(=O)=O)cc3Cl)cc2Cl)c1 [Compound I-36, 2-[3-Chloro-4-(2-chloro-5-cyano-phenoxy)-phenyl]-N-(2-chloro-4-sulfamoyl-phenyl)-acetamide]	0.104
Cc1cc(S(N)(=O)=O)ccc1NC(=O)Cc1ccc(Oc2cc(Cl)cc(C#N)c2)c(Cl)c1 [Compound I-38, 2-[3-Chloro-4-(3-chloro-5-cyano-phenoxy)-phenyl]-N-(2-methyl-4-sulfamoyl-phenyl)-acetamide]	0.806
N#Cc1cc(Cl)cc(Oc2ccc(CC(=O)Nc3ccc(S(N)(=O)=O)cc3Cl)cc2Cl)c1 [Compound I-39, 2-[3-Chloro-4-(3-chloro-5-cyano-phenoxy)-phenyl]-N-(2-chloro-4-sulfamoyl-phenyl)-acetamide]	0.0926
Cc1cc(S(N)(=O)=O)ccc1NC(=O)Cc1ccc(Oc2c(Cl)cccc2Cl)c(Cl)c1 [Compound I-41, 2-[3-Chloro-4-(2,6-dichloro-phenoxy)-phenyl]-N-(2-methyl-4-sulfamoyl-phenyl)-acetamide]	0.162
Cc1cc(S(N)(=O)=O)ccc1NC(=O)Cc1ccc(Oc2ccc(C#N)cc2C)c(Cl)c1 [Compound I-43, 2-[3-Chloro-4-(4-cyano-2-methyl-phenoxy)-phenyl]-N-(2-methyl-4-sulfamoyl-phenyl)-acetamide]	0.695
Cc1cc(C#N)ccc1Oc1ccc(CC(=O)Nc2ccc(S(N)(=O)=O)cc2Cl)cc1Cl [Compound I-44, 2-[3-Chloro-4-(4-cyano-2-methyl-phenoxy)-phenyl]-N-(2-chloro-4-sulfamoyl-phenyl)-acetamide]	0.0715

SMILES	IC50 [µM]
NS(=O)(=O)c1ccc(NC(=O)Cc2ccc(Oc3c(Cl)cccc3Cl)c(Cl)c2)c(Cl)c1 [Compound I-45, 2-[3-Chloro-4-(2,6-dichloro-phenoxy)-phenyl]-N-(2-chloro-4-sulfamoyl-phenyl)-acetamide]	0.0634
N#Cc1cc(Cl)cc(Oc2ccc(CC(=O)Nc3ccc(S(N)(=O)=O)cc3)cc2Br)c1 [Compound I-46, 2-[3-Bromo-4-(3-chloro-5-cyano-phenoxy)-phenyl]-N-(4-sulfamoyl-phenyl)-acetamide]	6
Cc1cc(S(N)(=O)=O)ccc1NC(=O)Cc1ccc(Oc2cc(Cl)cc(C#N)c2)c(Br)c1 [Compound I-47, 2-[3-Bromo-4-(3-chloro-5-cyano-phenoxy)-phenyl]-N-(2-methyl-4-sulfamoyl-phenyl)-acetamide]	0.339
N#Cc1cc(Cl)cc(Oc2ccc(CC(=O)Nc3ccc(S(N)(=O)=O)cc3Cl)cc2Br)c1 [Compound I-48, 2-[3-Bromo-4-(3-chloro-5-cyano-phenoxy)-phenyl]-N-(2-chloro-4-sulfamoyl-phenyl)-acetamide]	0.0191
N#Cc1cc(Cl)cc(Oc2ccc(CC(=O)Nc3ccc(CS(N)(=O)=O)cc3)cc2Br)c1 [Compound I-49, 2-[3-Bromo-4-(3-chloro-5-cyano-phenoxy)-phenyl]-N-(4-sulfamoylmethyl-phenyl)-acetamide]	2.35
N#Cc1cc(Cl)cc(Oc2ccc(CC(=O)Nc3ccc(S(N)(=O)=O)cc3Br)cc2Br)c1 [Compound I-50, 2-[3-Bromo-4-(3-chloro-5-cyano-phenoxy)-phenyl]-N-(2-bromo-4-sulfamoyl-phenyl)-acetamide]	0.0135
COc1cc(CC(=O)Nc2ccc(S(N)(=O)=O)cc2C)ccc1Oc1cc(Cl)cc(C#N)c1 [Compound I-51, 2-[4-(3-Chloro-5-cyano-phenoxy)-3-methoxy-phenyl]-N-(2-methyl-4-sulfamoyl-phenyl)-acetamide]	1.8
COc1cc(CC(=O)Nc2ccc(S(N)(=O)=O)cc2Cl)ccc1Oc1cc(Cl)cc(C#N)c1 [Compound I-52, 2-[4-(3-Chloro-5-cyano-phenoxy)-3-methoxy-phenyl]-N-(2-chloro-4-sulfamoyl-phenyl)-acetamide]	0.518
COc1cc(CC(=O)Nc2ccc(S(N)(=O)=O)cc2Br)ccc1Oc1cc(Cl)cc(C#N)c1 [Compound I-53, N-(2-Bromo-4-sulfamoyl-phenyl)-2-[4-(3-chloro-5-cyano-phenoxy)-3-methoxy-phenyl]-acetamide]	0.394
COc1cc(CC(=O)Nc2ccc(S(N)(=O)=O)cc2C)ccc1Oc1ccc(C#N)cc1C [Compound I-54, 2-[4-(4-Cyano-2-methyl-phenoxy)-3-methoxy-phenyl]-N-(2-methyl-4-sulfamoyl-phenyl)-acetamide]	2.44
COc1cc(CC(=O)Nc2ccc(S(N)(=O)=O)cc2Cl)ccc1Oc1ccc(C#N)cc1C [Compound I-55, N-(2-Chloro-4-sulfamoyl-phenyl)-2-[4-(4-cyano-2-methyl-phenoxy)-3-methoxy-phenyl]-acetamide]	0.419
COc1cc(CC(=O)Nc2ccc(S(N)(=O)=O)cc2Br)ccc1Oc1ccc(C#N)cc1C [Compound I-56, N-(2-Bromo-4-sulfamoyl-phenyl)-2-[4-(4-cyano-2-methyl-phenoxy)-3-methoxy-phenyl]-acetamide]	0.282
Cc1cc(S(N)(=O)=O)ccc1NC(=O)Cc1ccc(Oc2cc(C#N)cc(C(F)F)c2)c(Br)c1 [Compound I-62, 2-[3-Bromo-4-(3-cyano-5-difluoromethyl-phenoxy)-phenyl]-N-(2-methyl-4-sulfamoyl-phenyl)-acetamide]	0.116
N#Cc1cc(Oc2ccc(CC(=O)Nc3ccc(S(N)(=O)=O)cc3Cl)cc2Br)cc(C(F)F)c1 [Compound I-63, 2-[3-Bromo-4-(3-cyano-5-difluoromethyl-phenoxy)-phenyl]-N-(2-chloro-4-sulfamoyl-phenyl)-acetamide]	0.0531
N#Cc1cc(Oc2ccc(CC(=O)Nc3ccc(S(N)(=O)=O)cc3Br)cc2Br)cc(C(F)F)c1 [Compound I-64, 2-[3-Bromo-4-(3-cyano-5-difluoromethyl-phenoxy)-phenyl]-N-(2-bromo-4-sulfamoyl-phenyl)-acetamide]	0.0612
Cc1c(CC(=O)Nc2ccc(S(N)(=O)=O)cc2)ccc(Oc2cc(Cl)cc(C#N)c2)c1C [Compound I-65, 2-[4-(3-Chloro-5-cyano-phenoxy)-2,3-dimethyl-phenyl]-N-(4-sulfamoyl-phenyl)-acetamide]	3.12
Cc1cc(S(N)(=O)=O)ccc1NC(=O)Cc1ccc(Oc2cc(Cl)cc(C#N)c2)c(C)c1C [Compound I-66, 2-[4-(3-Chloro-5-cyano-phenoxy)-2,3-dimethyl-phenyl]-N-(2-methyl-4-sulfamoyl-phenyl)-acetamide]	0.0817

system: not given; experiment: not given; conditions: not given

SMILES	melting point [°C]
Cc1cc(S(N)(=O)=O)ccc1NC(=O)Cc1ccc(Oc2cc(Cl)cc(C#N)c2)c(Br)c1 [Compound I-47, 2-[3-Bromo-4-(3-chloro-5-cyano-phenoxy)-phenyl]-N-(2-methyl-4-sulfamoyl-phenyl)-acetamide]	214.6 to 215.9
N#Cc1cc(Cl)cc(Oc2ccc(CC(=O)Nc3ccc(S(N)(=O)=O)cc3Cl)cc2Br)c1 [Compound I-48, 2-[3-Bromo-4-(3-chloro-5-cyano-phenoxy)-phenyl]-N-(2-chloro-4-sulfamoyl-phenyl)-acetamide]	205 to 207.3
N#Cc1cc(Cl)cc(Oc2ccc(CC(=O)Nc3ccc(CS(N)(=O)=O)cc3)cc2Br)c1 [Compound I-49, 2-[3-Bromo-4-(3-chloro-5-cyano-phenoxy)-phenyl]-N-(4-sulfamoylmethyl-phenyl)-acetamide]	133.4 to 135.3
N#Cc1cc(Cl)cc(Oc2ccc(CC(=O)Nc3ccc(S(N)(=O)=O)cc3Br)cc2Br)c1 [Compound I-50, 2-[3-Bromo-4-(3-chloro-5-cyano-phenoxy)-phenyl]-N-(2-bromo-4-sulfamoyl-phenyl)-acetamide]	168.1 to 170.4
